Here are results for 5 molecules from PMC11066976 (Cell reports, 2023).

Where two headings read alike, the source gives them in different places.

Common to all, as to assay: compensated interferometric reader
In assay [1] the target is T1, transcobalamin 2 (TCN2) (Homo sapiens, UniProt P20062).
T1 sequence (P20062 19-427): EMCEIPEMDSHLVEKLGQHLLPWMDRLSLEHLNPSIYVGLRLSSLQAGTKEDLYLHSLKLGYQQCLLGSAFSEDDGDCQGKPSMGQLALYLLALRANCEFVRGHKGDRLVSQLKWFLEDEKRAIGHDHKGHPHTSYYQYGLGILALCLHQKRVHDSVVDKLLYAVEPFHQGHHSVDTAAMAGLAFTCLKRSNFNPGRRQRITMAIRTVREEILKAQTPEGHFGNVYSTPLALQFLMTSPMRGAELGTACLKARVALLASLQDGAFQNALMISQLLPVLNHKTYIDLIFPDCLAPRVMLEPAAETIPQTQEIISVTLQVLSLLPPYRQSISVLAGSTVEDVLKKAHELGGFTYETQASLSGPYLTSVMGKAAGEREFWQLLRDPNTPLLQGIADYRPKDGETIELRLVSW
The assay is classed as binding.

Assay [2] concerns the target T1, transcobalamin 2 (TCN2). The assay is classed as binding. The source holds these as a separate data set.
For the next assay, the target named is T2, CD320 (Homo sapiens, UniProt Q9NPF0).
T2 sequence (Q9NPF0 36-229 limits assumed): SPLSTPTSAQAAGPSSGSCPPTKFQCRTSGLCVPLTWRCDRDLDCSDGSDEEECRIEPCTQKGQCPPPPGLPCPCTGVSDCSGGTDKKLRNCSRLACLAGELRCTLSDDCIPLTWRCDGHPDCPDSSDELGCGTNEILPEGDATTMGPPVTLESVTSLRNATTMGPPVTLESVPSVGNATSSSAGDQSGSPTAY
The assay is classed as binding.

In a further assay the target is T3, Recombinant human TCN2 (human, UniProt P20062 19-427).
T3 sequence (looked up): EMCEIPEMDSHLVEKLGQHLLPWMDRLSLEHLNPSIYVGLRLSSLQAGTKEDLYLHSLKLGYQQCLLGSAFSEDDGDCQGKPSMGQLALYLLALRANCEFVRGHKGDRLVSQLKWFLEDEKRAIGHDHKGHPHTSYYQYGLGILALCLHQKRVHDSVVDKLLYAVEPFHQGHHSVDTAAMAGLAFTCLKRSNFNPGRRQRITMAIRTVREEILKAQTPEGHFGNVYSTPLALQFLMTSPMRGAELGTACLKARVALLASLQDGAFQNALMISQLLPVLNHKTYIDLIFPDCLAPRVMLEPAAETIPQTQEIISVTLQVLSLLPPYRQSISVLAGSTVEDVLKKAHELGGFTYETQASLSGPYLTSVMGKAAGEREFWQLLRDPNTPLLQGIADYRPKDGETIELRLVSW

As a reminder, the Kd is the constant that tells how readily two partners part at equilibrium. As for `CCCCCCCCc1ccc(CCC(N)(CO)CO)cc1` [FTY720], the equilibrium dissociation constant (Kd) on transcobalamin 2 (TCN2) [1] stood at 0.24 nM.

Vitamin B12 gave a Kd on transcobalamin 2 (TCN2) [2] of 0.19 nM.

As for `CCCCCCCCCCCCC/C=C/[C@@H](O)[C@@H](N)CO` [sphingosine], binding on transcobalamin 2 (TCN2) [2] was put at a Kd of 0.14 nM.

`CCCCCCCCCCCCC/C=C/[C@@H](O)[C@@H](N)COP(=O)(O)O` [S1P] came in with a dissociation constant (Kd) at CD320 of 11.8 nM.

B1: Recombinant human CD320 (receptor, UniProt Q9NPF0 36-229, looked up)
chain: SPLSTPTSAQAAGPSSGSCPPTKFQCRTSGLCVPLTWRCDRDLDCSDGSDEEECRIEPCTQKGQCPPPPGLPCPCTGVSDCSGGTDKKLRNCSRLACLAGELRCTLSDDCIPLTWRCDGHPDCPDSSDELGCGTNEILPEGDATTMGPPVTLESVTSLRNATTMGPPVTLESVPSVGNATSSSAGDQSGSPTAY
Turning to B1, the Kd with Recombinant human TCN2 is 1.86 nM.
